Measured values as given in ChEMBL document CHEMBL1201862, “PubChem BioAssay data set” (2004).
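Growth conditions: 96-well plates. Treatment: test compound, 48 hours, 5 concentrations. Analysis: linear interpolation between bracketing concentrations; unreached endpoints set to highest concentration. GI50: concentration for 50% inhibition of growth.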 The source made the active and inactive calls. Rule as the data show it: active = GI50 up to about 1.1 µM and inactive = higher.

Legend:
Test in all cases: NCI anticancer screen, dose series, 48 h
CCRF-CEM = system: CCRF-CEM
HCT-116 = system: HCT-116
HL-60 = system: HL-60
HOP-62 = system: HOP-62
IGROV-1 = system: IGROV-1
K562 = system: K562
KM12 = system: KM12
MDA-N = system: MDA-N
NCI-H522 = system: NCI-H522
OVCAR-3 = system: OVCAR-3
OVCAR-4 = system: OVCAR-4
OVCAR-5 = system: OVCAR-5
SF-268 = system: SF-268
SK-OV-3 = system: SK-OV-3
SN12C = system: SN12C
SW-620 = system: SW-620
UACC-257 = system: UACC-257
UACC-62 = system: UACC-62
SK-MEL-2 = system: SK-MEL-2

| Structure (SMILES) | GI50 (CCRF-CEM) | GI50 (HCT-116) | GI50 (HL-60) | GI50 (HOP-62) | GI50 (IGROV-1) | GI50 (K562) | GI50 (KM12) | GI50 (MDA-N) | GI50 (NCI-H522) | GI50 (OVCAR-3) | GI50 (OVCAR-4) | GI50 (OVCAR-5) | GI50 (SF-268) | GI50 (SK-OV-3) | GI50 (SN12C) | GI50 (SW-620) | GI50 (UACC-257) | GI50 (UACC-62) | GI50 (SK-MEL-2) |
| --- | --- | --- | --- | --- | --- | --- | --- | --- | --- | --- | --- | --- | --- | --- | --- | --- | --- | --- | --- |
| N[C@H](Cc1ccc2oc3cc(=O)c4ccccc4c-3nc2c1)C(=O)O | 20.9 µM (inactive) | 46.3 µM (inactive) | 27.7 µM (inactive) | 46.5 µM (inactive) | 32.3 µM (inactive) | 26.2 µM (inactive) | 37.3 µM (inactive) | 15.3 µM (inactive) | 44.7 µM (inactive) | 29.2 µM (inactive) | > 100 µM (inactive) | 65.9 µM (inactive) | 79.6 µM (inactive) | > 100 µM (inactive) | 42.5 µM (inactive) | 46.7 µM (inactive) | 29.8 µM (inactive) | 26.7 µM (inactive) |  |
| O=C1NCC2(CCN(CCCC3(c4ccc(F)cc4)OCCO3)CC2)N1c1ccccc1 | > 100 µM (inactive) | > 100 µM (inactive) | > 100 µM (inactive) | > 100 µM (inactive) | > 100 µM (inactive) | > 100 µM (inactive) | > 100 µM (inactive) | > 100 µM (inactive) | > 100 µM (inactive) | > 100 µM (inactive) | > 100 µM (inactive) | > 100 µM (inactive) | > 100 µM (inactive) |  | > 100 µM (inactive) | 32.7 µM (inactive) | 70.6 µM (inactive) | > 100 µM (inactive) | > 100 µM (inactive) |
| COc1ccc(/C=N/n2c(Cc3ccc(Cl)cc3)n[nH]c2=O)c(OC)c1 | > 100 µM (inactive) | > 100 µM (inactive) |  | > 100 µM (inactive) | 20.8 µM (inactive) | > 100 µM (inactive) | 27.3 µM (inactive) | 57.9 µM (inactive) | 16 µM (inactive) | 35.2 µM (inactive) | 16 µM (inactive) | 38.3 µM (inactive) | 13.5 µM (inactive) | 26.1 µM (inactive) | > 10 µM (inactive) | > 100 µM (inactive) | 41.1 µM (inactive) | 24.9 µM (inactive) | 53 µM (inactive) |
| Clc1ccc(/N=C2\c3ccccc3CN2c2ccc(Cl)cc2)cc1 | < 0.01 µM (active) | 41.4 µM (inactive) |  | 63.1 µM (inactive) | 39.8 µM (inactive) | 0.119 µM (active) | 77.8 µM (inactive) | 30.1 µM (inactive) | 63.2 µM (inactive) | 52.7 µM (inactive) | 61.9 µM (inactive) | > 100 µM (inactive) | 47.1 µM (inactive) | > 100 µM (inactive) | > 100 µM (inactive) | > 100 µM (inactive) | > 100 µM (inactive) | > 100 µM (inactive) | 4.68 µM (inactive) |
| CN(C)CCCNC(=O)N/N=C/c1ccc(O)cc1 | > 100 µM (inactive) | > 100 µM (inactive) | > 100 µM (inactive) | > 100 µM (inactive) | > 100 µM (inactive) | > 100 µM (inactive) | > 100 µM (inactive) | > 100 µM (inactive) | > 100 µM (inactive) | > 100 µM (inactive) |  | > 100 µM (inactive) | > 100 µM (inactive) | > 100 µM (inactive) | > 100 µM (inactive) | > 100 µM (inactive) | > 100 µM (inactive) | > 100 µM (inactive) | > 100 µM (inactive) |
| Cc1c[nH]c(C(=O)O)c1-c1ccc2c(-c3ccccc3)nc3ccccc3n12 | 36.3 µM (inactive) | 34.8 µM (inactive) |  | 15.7 µM (inactive) | 22.9 µM (inactive) | 41.5 µM (inactive) | 20 µM (inactive) | 19 µM (inactive) | 20.9 µM (inactive) | 16.4 µM (inactive) | 41 µM (inactive) | 36 µM (inactive) | 28.2 µM (inactive) | 32.1 µM (inactive) | 30.7 µM (inactive) | 41.2 µM (inactive) | 30.8 µM (inactive) | 20.7 µM (inactive) | 20.7 µM (inactive) |
| CN1CCCCCC(=N\O)/C(=N/O)CCCCC1 | > 100 µM (inactive) | > 100 µM (inactive) | > 100 µM (inactive) | > 100 µM (inactive) | > 100 µM (inactive) | > 100 µM (inactive) | > 100 µM (inactive) | > 100 µM (inactive) | > 100 µM (inactive) | > 100 µM (inactive) |  | > 100 µM (inactive) | > 100 µM (inactive) |  | > 100 µM (inactive) | > 100 µM (inactive) | > 100 µM (inactive) |  |  |
| COc1ccc(SCc2cc(OCc3ccccc3)c(OCc3ccccc3)c(OCc3ccccc3)c2)cc1 | 1.72 µM (inactive) | 1.75 µM (inactive) | 1.87 µM (inactive) | 1.81 µM (inactive) | 1.79 µM (inactive) | 1.21 µM (inactive) | 1.64 µM (inactive) | 1.83 µM (inactive) | 1.83 µM (inactive) | 1.65 µM (inactive) | 1.8 µM (inactive) | 1.62 µM (inactive) | 1.77 µM (inactive) | 1.77 µM (inactive) | 1.79 µM (inactive) | 1.7 µM (inactive) | 1.71 µM (inactive) | 2.11 µM (inactive) |  |
| Cc1cc(-c2nc3c(O)cccc3s2)ccc1N | 27.3 µM (inactive) | 20.4 µM (inactive) | 19.3 µM (inactive) | 25.6 µM (inactive) | 17 µM (inactive) | 39.2 µM (inactive) | 23.3 µM (inactive) | 25.4 µM (inactive) | 17.2 µM (inactive) | 26.5 µM (inactive) |  |  | 21 µM (inactive) | 39.1 µM (inactive) | 27.2 µM (inactive) | 41.4 µM (inactive) | 20.3 µM (inactive) | 12.2 µM (inactive) | 22.7 µM (inactive) |
| O=c1c2cc([N+](=O)[O-])ccc2n2n1CCCCC2 | > 100 µM (inactive) | > 100 µM (inactive) | > 100 µM (inactive) | > 100 µM (inactive) | > 100 µM (inactive) | > 100 µM (inactive) | > 100 µM (inactive) | > 100 µM (inactive) | > 100 µM (inactive) | > 100 µM (inactive) | > 100 µM (inactive) | > 100 µM (inactive) | > 100 µM (inactive) | > 100 µM (inactive) | > 100 µM (inactive) | > 100 µM (inactive) | > 100 µM (inactive) | > 100 µM (inactive) |  |
| O=c1c(C(c2ccc([N+](=O)[O-])cc2)c2c(O)oc3ccccc3c2=O)c(O)oc2ccccc12 | > 100 µM (inactive) | > 100 µM (inactive) | > 100 µM (inactive) | > 100 µM (inactive) | > 100 µM (inactive) | 10 µM (inactive) | > 100 µM (inactive) | > 100 µM (inactive) | > 100 µM (inactive) | > 100 µM (inactive) | > 100 µM (inactive) |  | > 100 µM (inactive) |  | > 100 µM (inactive) | > 100 µM (inactive) | > 100 µM (inactive) | > 100 µM (inactive) | > 100 µM (inactive) |
